# Results reported in patent publication US9718782B2, “TrkA kinase inhibitors, compositions and methods thereof” (MERCK SHARP & DOHME CORP, priority 2013, dated 2017).
# Molecular target: T1, TrkA receptor (Homo sapiens, UniProt P04629)
# T1 construct: host or cells: U2OS (PathHunter, 'TrkA p75' cells)
# Assay: DiscoverX PathHunter TrkA functional assay (NGF-stimulated U2OS cells)
# Assay type: cell-based
# Details: U2OS cells expressing TrkA-Prolink fusion and Shc1-EA; compound 1 hour, then EC80 NGF 3 hours; luminescence
# Experimental: TrkA functional activity was measured using a DiscoverX PathHunter assay. In this assay, U2OS cells are express TrkA receptor as a fusion with the weakly complementing fragment of B-galactosidase, which DiscoverX calls “Prolink (PK)”; additionally, Shcl is fused with a larger fragment, which is called “Enzyme Acceptor (EA)”. Activation of the TrkA receptor, upon NGF addition, results in the kinase domain being phosphorylated, resulting in subsequent recruitment of Shcl-EA protein. That recruitment results in an active B-galactosidase enzyme that is detected by addition of a chemiluminescent substrate.
# All reagents were purchased from DiscoverX, except for the receptor agonists (NGF, BDNF, NT3) which were purchased from Peprotech. Cells were expanded and frozen into cryovials (TrkA p75 @passage 13, 1.5×10^7 cells/vial; TrkC p75 @passage 11, 1.5×10^7 cells/vial in InVitrogen Recovery Cell Freezing media), and stored in the vapor phase of liquid nitrogen, and thawed immediately before use. Thawed cells were added to a 384-well plate (BD Falcon 384-well white/clear, TC surface 120 uL assay plates (353963), 20 uL of 0.375e6 cells/mL=>7500 cells/well), and allowed to incubate overnight. Compound (10 mM starting dose: 202.5 nL compound yielding 0.81% DMSO final in total assay volume and starting doses 81 uM) was added the following morning and allowed to incubate on cells for 1 hour. Then, 5 uL EC80 of agonist (NGF for TrkA; BDNF for TrkB; NT3 for TrkC) was added and allowed to incubate for 3 hours at room temperature. DiscoverX PathHunter detection reagent is added (12 uL to plate and components diluted in parts as per kit instructions) and the plate is further incubated for 1 hour in the dark. The plate is read via luminescence on the Perkin Elmer Envision.
# T1 sequence (P04629 33-796): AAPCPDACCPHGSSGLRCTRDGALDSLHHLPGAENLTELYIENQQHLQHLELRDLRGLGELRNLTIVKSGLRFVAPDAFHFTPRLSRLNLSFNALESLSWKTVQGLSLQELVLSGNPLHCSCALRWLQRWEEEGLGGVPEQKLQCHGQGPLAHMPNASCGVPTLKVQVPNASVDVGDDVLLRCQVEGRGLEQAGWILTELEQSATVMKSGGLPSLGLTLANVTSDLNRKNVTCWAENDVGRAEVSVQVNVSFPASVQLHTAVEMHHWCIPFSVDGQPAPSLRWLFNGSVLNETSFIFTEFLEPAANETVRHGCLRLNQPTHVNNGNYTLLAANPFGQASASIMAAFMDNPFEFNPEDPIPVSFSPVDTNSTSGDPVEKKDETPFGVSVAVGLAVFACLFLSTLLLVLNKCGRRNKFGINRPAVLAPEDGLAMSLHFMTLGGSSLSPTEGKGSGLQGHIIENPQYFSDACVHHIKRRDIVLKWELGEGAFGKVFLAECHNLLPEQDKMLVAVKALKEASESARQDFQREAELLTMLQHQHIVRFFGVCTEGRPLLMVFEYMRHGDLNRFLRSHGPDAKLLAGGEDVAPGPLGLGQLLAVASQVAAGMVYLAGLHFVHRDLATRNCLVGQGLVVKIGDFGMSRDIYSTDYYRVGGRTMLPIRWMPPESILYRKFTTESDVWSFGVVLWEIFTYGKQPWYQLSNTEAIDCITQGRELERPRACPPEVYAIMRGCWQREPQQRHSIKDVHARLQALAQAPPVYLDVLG
row,IC50 [nM],Compound
1,1200,"Cn1nnc(-c2cccc(NC(=O)NC3c4ccccc4-c4ccccc43)c2)n1 [Compound 32, 1-(9H-fluoren-9-yl)-3-[3-(2-methyl-2H-tetrazol-5-yl)phenyl]urea]"
2,1700,"Cc1nnnn1-c1cccc(NC(=O)NC2c3ccccc3-c3ccccc32)c1 [Compound 33, 1-(9H-fluoren-9-yl)-3-[3-(5-methyl-1H-tetrazol-1-yl)phenyl]urea]"
3,2300,"Cc1nnc(-c2cccc(NC(=O)NC3c4ccccc4-c4ccccc43)c2)[nH]1 [Compound 37, 1-(9H-fluoren-9-yl)-3-[3-(5-methyl-4H-1,2,4-triazol-3-yl)phenyl]urea]"
4,110,"Cn1cnnc1-c1cccc(NC(=O)NC2c3ccccc3-c3ccccc32)c1 [Compound 42, 1-(9H-fluoren-9-yl)-3-[3-(4-methyl-4H-1,2,4-triazol-3-yl)phenyl]urea]"
5,130,"O=C(Nc1cccc(-c2nnc3n2CCC3)c1)NC1c2ccccc2-c2ccccc21 [Compound 43, 1-[3-(6,7-dihydro-5H-pyrrolo[2,1-c] [1,2,4]triazol-3-yl)phenyl]-3-(9H-fluoren-9-yl)urea]"
6,410,"CCn1cnnc1-c1cccc(NC(=O)NC2c3ccccc3-c3ccccc32)c1 [Compound 44, 1-[3-(4-ethyl-4H-1,2,4-triazol-3-yl)phenyl]-3-(9H-fluoren-9-yl)urea]"
7,1400,"O=C(Nc1cccc(-c2nc(C3CC3)n[nH]2)c1)NC1c2ccccc2-c2ccccc21 [Compound 45, 1-[3-(3-cyclopropyl-1H-1,2,4-triazol-5-yl)phenyl]-3-(9H-fluoren-9-yl)urea]"
8,660,"Cc1nnc(-c2cccc(NC(=O)NC3c4ccccc4-c4ccccc43)c2)o1 [Compound 46, 1-(9H-fluoren-9-yl)-3-[3-(5-methyl-1,3,4-oxadiazol-2-yl)phenyl]urea]"
9,970,"Cc1nnc(-c2cccc(NC(=O)NC3c4ccccc4-c4ccccc43)c2)s1 [Compound 47, 1-(9H-fluoren-9-yl)-3-[3-(5-methyl-1,3,4-thiadiazol-2-yl)phenyl]urea]"
10,360,"O=C(Nc1cccc(-c2nnc[nH]2)c1)NC1c2ccccc2-c2ccccc21 [Compound 48, 1-(9H-fluoren-9-yl)-3-[3-(4H-1,2,4-triazol-3-yl)phenyl]urea]"
11,2800,"O=C(Nc1cccc(-c2nnco2)c1)NC1c2ccccc2-c2ccccc21 [Compound 49, 1-(9H-fluoren-9-yl)-3-[3-(1,3,4-oxadiazol-2-yl)phenyl]urea]"
12,500,"Cc1nc(-c2ccccc2)c(NC(=O)NC2c3ccccc3-c3ccccc32)[nH]1 [Compound 59, 1-(9H-fluoren-9-yl)-3-(2-methyl-4-phenyl-1H-imidazol-5-yl)urea]"
13,560,"CCc1nnc(-c2cccc(NC(=O)NC3c4ccccc4-c4ccccc43)c2)o1 [Compound 60, 1-[3-(5-ethyl-1,3,4-oxadiazol-2-yl)phenyl]-3-(9H-fluoren-9-yl)urea]"

# The remaining lines, values behind:
row,Compound,IC50 [nM]
1,"CC(C)(C)c1cc(NC(=O)NC2c3ccccc3-c3ccccc32)n(-c2ccc(F)cc2)n1 [Compound 20, 1-[3-tert-butyl-1-(4-fluorophenyl)-1H-pyrazol-5-yl]-3-(9H-fluoren-9-yl)urea]",190
2,"O=C(Nc1c(-c2ccccc2)nc2ccccn12)NC1c2ccccc2-c2ccccc21 [Compound 21, 1-(9H-fluoren-9-yl)-3-(2-phenylimidazo [1,2-a]pyridin-3-yl)urea]",28
3,"Cn1cnc(-c2ccccc2)c1NC(=O)NC1c2ccccc2-c2ccccc21 [Compound 22, 1-(9H-fluoren-9-yl)-3-(1-methyl-4-phenyl-1H-imidazol-5-yl)urea]",310
4,"Cc1nn(-c2ccc(F)cc2)c(NC(=O)NC2c3ccccc3-c3ccccc32)c1C#N [Compound 23, 1-[4-cyano-1-(4-fluorophenyl)-3-methyl-1H-pyrazol-5-yl]-3-(9H-fluoren-9-yl)urea]",330
5,"COc1ccc(-c2cc(NC(=O)NC3c4ccccc4-c4ccccc43)n(-c3ccccc3)n2)cc1 [Compound 24, 1-(9H-fluoren-9-yl)-3-[3-(4-methoxyphenyl)-1-phenyl-1H-pyrazol-5-yl]urea]",550
6,"O=C(Nc1c2cnc3ccccc3c2nn1-c1ccccc1)NC1c2ccccc2-c2ccccc21 [Compound 25, 1-(9H-fluoren-9-yl)-3-(2-phenyl-2H-pyrazolo[4,3-c]quinolin-3-yl)urea]",1400
7,"CNc1ncccc1NC(=O)NC1c2ccccc2-c2ccccc21 [Compound 26, 1-(9H-fluoren-9-yl)-3-[2-(methylamino)pyridin-3-yl]urea]",520
8,"Cc1ccc(NC(=O)NC2c3ccccc3-c3ccccc32)c(F)n1 [Compound 27, 1-(9H-fluoren-9-yl)-3-(2-fluoro-6-methylpyridin-3-yl)urea]",3200
9,"Cc1ncc(NC(=O)NC2c3ccccc3-c3ccccc32)c(-c2ccc(F)cc2)n1 [Compound 28, 1-(9H-fluoren-9-yl)-3-[4-(4-fluorophenyl)-2-methylpyrimidin-5-yl]urea]",150
10,"Cc1cc(-c2ccc(F)cc2)c(NC(=O)NC2c3ccccc3-c3ccccc32)cn1 [Compound 29, 1-(9H-fluoren-9-yl)-3-[4-(4-fluorophenyl)-6-methylpyridin-3-yl]urea]",480
11,"O=C(Nc1cncnc1-c1ccccc1)NC1c2ccccc2-c2ccccc21 [Compound 30, 1-(9H-fluoren-9-yl)-3-(4-phenylpyrimidin-5-yl)urea]",170
12,"O=C(Nc1ccccc1-c1ccccc1)NC1c2ccccc2-c2ccccc21 [Compound 31, 1-biphenyl-2-yl-3-(9H-fluoren-9-yl)urea]",960
13,"O=C(Nc1cccc(-n2cnnc2)c1)NC1c2ccccc2-c2ccccc21 [Compound 34, 1-(9H-fluoren-9-yl)-3-[3-(4H-1,2,4-triazol-4-yl)phenyl]urea]",1100
14,"O=C(Nc1ccccc1N1CCOCC1)NC1c2ccccc2-c2ccccc21 [Compound 35, 1-(9H-fluoren-9-yl)-3-(2-morpholin-4-ylphenyl)urea]",4000
15,"CN1CCN(Cc2ccccc2NC(=O)NC2c3ccccc3-c3ccccc32)CC1 [Compound 36, 1-(9H-fluoren-9-yl)-3-{2-[(4-methylpiperazin-1-yl)methyl]phenyl}urea]",3000
16,"Cc1nccn1-c1cccc(NC(=O)NC2c3ccccc3-c3ccccc32)c1 [Compound 38, 1-(9H-fluoren-9-yl)-3-[3-(2-methyl-1H-imidazol-1-yl)phenyl]urea]",3000
17,"Cc1cc(NC(=O)NC2c3ccccc3-c3ccccc32)n(-c2ccccn2)n1 [Compound 39, 1-(9H-fluoren-9-yl)-3-(3-methyl-1-pyridin-2-yl-1H-pyrazol-5-yl)urea]",3000
18,"O=C(Nc1cccnc1C1CCCCC1)NC1c2ccccc2-c2ccccc21 [Compound 40, 1-(2-cyclohexylpyridin-3-yl)-3-(9H-fluoren-9-yl)urea]",200
19,"Cc1cc(NC(=O)NC2c3ccccc3-c3ccccc32)n(-c2ccc(F)cc2)n1 [Compound 41, 1-(9H-fluoren-9-yl)-3-[1-(4-fluorophenyl)-3-methyl-1H-pyrazol-5-yl]urea]",83
20,"O=C(Nc1cccnc1-c1ccncc1)NC1c2ccccc2-c2ccccc21 [Compound 50, 1-(2,4′-bipyridin-3-yl)-3-(9H-fluoren-9-yl)urea]",880
21,"O=C(Nc1cccnc1-c1cccnc1)NC1c2ccccc2-c2ccccc21 [Compound 51, 1-(2,3′-bipyridin-3-yl)-3-(9H-fluoren-9-yl)urea]",3000
22,"O=C(Nc1cccnc1-c1ccc(F)cc1)NC1c2ccccc2-c2ccccc21 [Compound 52, 1-(9H-fluoren-9-yl)-3-[2-(4-fluorophenyl)pyridin-3-yl]urea]",100
23,"O=C(Nc1cccnc1-c1ccnc(F)c1)NC1c2ccccc2-c2ccccc21 [Compound 53, 1-(9H-fluoren-9-yl)-3-(2′-fluoro-2,4′-bipyridin-3-yl)urea]",540
24,"O=C(Nc1cccnc1-c1ccco1)NC1c2ccccc2-c2ccccc21 [Compound 54, 1-(9H-fluoren-9-yl)-3-(2-furan-2-ylpyridin-3-yl)urea]",2800
25,"O=C(Nc1cccnc1-c1ccoc1)NC1c2ccccc2-c2ccccc21 [Compound 55, 1-(9H-fluoren-9-yl)-3-(2-furan-3-ylpyridin-3-yl)urea]",390
26,"Cn1nc(-c2ccccc2)cc1NC(=O)NC1c2ccccc2-c2ccccc21 [Compound 56, 1-(9H-fluoren-9-yl)-3-(1-methyl-3-phenyl-1H-pyrazol-5-yl)urea]",410
27,"O=C(Nc1cccc(-n2cnnn2)c1)NC1c2ccccc2-c2ccccc21 [Compound 57, 1-(9H-fluoren-9-yl)-3-[3-(1H-tetrazol-1-yl)phenyl]urea]",1300
28,"Cc1nc(-c2ccccc2)c(NC(=O)NC2c3ccccc3-c3ccccc32)n1C [Compound 58, 1-(1,2-dimethyl-4-phenyl-1H-imidazol-5-yl)-3-(9H-fluoren-9-yl)urea]",190
29,"CN(C)C(=O)c1cccc(NC(=O)NC2c3ccccc3-c3ccccc32)c1 [Compound 61, 3-[(9H-fluoren-9-ylcarbamoyl)amino]-N,N-dimethylbenzamide]",670
